Experimental data as given in PubChem BioAssay AID248 (DTP/NCI, 2004).
Several values for one entry are separate records, joined by “and”; a condition that tells them apart may be missing. Equal values may be shown once. Inconclusive results and toxic doses are left out. Rule as the data show it: active = T/C of 150% or more; inactive = T/C below 125%.

Test system: L1210 leukemia ip in BDF1 mice, survival T/C
Test: NCI In Vivo Anticancer Drug Screen. Data for tumor model L1210 Leukemia (intraperitoneal) in B6D2F1 (BDF1) mice
Settings: endpoint: mean survival time, higher = longer survival
Summary of the method: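 Read-out is survival time, reported as the treated-group measurement over the vehicle-control measurement.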

[1] = dose: 100.0 mg/kg/injection, schedule: Q01DX009 (ip), vehicle: saline with Tween-80
[2] = dose: 200.0 mg/kg/injection, schedule: Q01DX009 (ip), vehicle: saline with Tween-80
[3] = dose: 400.0 mg/kg/injection, schedule: Q01DX009 (ip), vehicle: saline with Tween-80
[4] = dose: 100.0 mg/kg/injection, schedule: Q04DX003 (ip), vehicle: saline with Tween-80
[5] = dose: 200.0 mg/kg/injection, schedule: Q04DX003 (ip), vehicle: saline with Tween-80
[6] = dose: 50.0 mg/kg/injection, schedule: Q01DX009 (ip), vehicle: saline
[7] = dose: 100.0 mg/kg/injection, schedule: Q01DX009 (ip), vehicle: saline
[8] = dose: 100.0 mg/kg/injection, schedule: Q04DX003 (ip), vehicle: saline
[9] = dose: 200.0 mg/kg/injection, schedule: Q01DX009 (ip), vehicle: saline
[10] = dose: 200.0 mg/kg/injection, schedule: Q04DX003 (ip), vehicle: saline
[11] = dose: 400.0 mg/kg/injection, schedule: Q04DX003 (ip), vehicle: saline
[12] = dose: 50.0 mg/kg/injection, schedule: Q01DX001 (ip), vehicle: saline
[13] = dose: 100.0 mg/kg/injection, schedule: Q01DX001 (ip), vehicle: saline
[14] = dose: 200.0 mg/kg/injection, schedule: Q01DX001 (ip), vehicle: saline
[15] = dose: 400.0 mg/kg/injection, schedule: Q01DX001 (ip), vehicle: saline
[16] = dose: 100.0 mg/kg/injection, schedule: Q04DX002 (ip), vehicle: saline with Tween-80
[17] = dose: 200.0 mg/kg/injection, schedule: Q04DX002 (ip), vehicle: saline with Tween-80
[18] = dose: 400.0 mg/kg/injection, schedule: Q04DX002 (ip), vehicle: saline with Tween-80
[19] = dose: 400.0 mg/kg/injection, schedule: Q04DX003 (ip), vehicle: saline with Tween-80
[20] = dose: 100.0 mg/kg/injection, schedule: Q04DX003 (ip), vehicle: Klucel (hydroxypropylcellulose) (HPC)
[21] = dose: 200.0 mg/kg/injection, schedule: Q04DX003 (ip), vehicle: Klucel (hydroxypropylcellulose) (HPC)
[22] = dose: 400.0 mg/kg/injection, schedule: Q04DX003 (ip), vehicle: Klucel (hydroxypropylcellulose) (HPC)

Measured: T/C

CCOP(=S)(N/N=C1\CC2CCC1C2)OCC (stereo unspecified)
inactive: dose: 100.0 mg/kg/injection, schedule: Q01DX001 (ip), vehicle: other 94 % of control

O=[N+]([O-])c1cc([N+](=O)[O-])c2nc3ccccn3c2c1
inactive: [1] 96 % of control | [2] 102 % of control | [3] 107 % of control

N#CCc1c(Cl)sc(Cl)c1CC#N
inactive: [4] 88 % of control | [5] 88 % of control

CC(=O)C(C)(C)O
inactive: [1] 90 % of control | [2] 87 % of control | [3] 92 % of control

COc1cc2c(cc1OC)[C@H]1CNC[C@H]1[C@@H](c1ccccc1)C2
inactive: [6] 95 % of control | [7] 106 % of control | [8] 97 % of control | [9] 106 % of control | [10] 106 % of control

O=C(Nc1ccc(Cl)cc1)Oc1ccc2ccccc2c1
inactive: [8] 103 % of control | [10] 92 % of control | [11] 97 % of control

CCOP(=S)(S)OCC.[Pd]
inactive: dose: 12.5 mg/kg/injection, schedule: Q01DX009 (ip), vehicle: other 95 % of control | dose: 25.0 mg/kg/injection, schedule: Q01DX009 (ip), vehicle: other 95 % of control | [12] 96 % of control | [13] 100 % of control | [14] 100 % of control | [15] 100 % of control

O=c1cc(CSCCO)[nH]c(=O)[nH]1
inactive: [8] 102 % of control | [10] 96 % of control | [11] 104 % of control

CC(C)=CCC(C#N)(CCN(C)C)c1cccc2ccccc12 (stereo unspecified)
inactive: dose: 25.0 mg/kg/injection, schedule: Q01DX009 (ip), vehicle: saline 98 % of control | [6] 101 % of control | [7] 94 % of control | [8] 98 % of control

O=C(Nc1ccccc1[N+](=O)[O-])Oc1ccc(-c2ccccc2)cc1
inactive: [1] 93 % of control and 105 % of control | [16] 103 % of control and 117 % of control | [4] 98 % of control | [2] 101 % of control and 92 % of control | [17] 107 % of control and 91 % of control | [5] 95 % of control | [3] 101 % of control and 103 % of control | [18] 101 % of control and 91 % of control | [19] 101 % of control

CCCCCCCCCCCCOc1ccc(C(=O)CC(=O)OCC)cc1
inactive: dose: 100.0 mg/kg/injection, schedule: Q01DX001 (ip), vehicle: acetone 95 % of control | dose: 200.0 mg/kg/injection, schedule: Q01DX001 (ip), vehicle: acetone 100 % of control | [10] 90 % of control | dose: 400.0 mg/kg/injection, schedule: Q01DX001 (ip), vehicle: acetone 108 % of control | [11] 89 % of control

CN(C)C1CCC(N=Nc2cc([N+](=O)[O-])ccc2C(=O)O)CC1 (stereo unspecified)
inactive: dose: 75.0 mg/kg/injection, schedule: Q01DX001 (ip), vehicle: acetone 105 % of control | dose: 150.0 mg/kg/injection, schedule: Q01DX001 (ip), vehicle: acetone 97 % of control | dose: 300.0 mg/kg/injection, schedule: Q01DX001 (ip), vehicle: acetone 90 % of control

CC1(C)N=C(N)N=C(N)N1c1ccc(CCc2ccc(Cl)cc2S(=O)(=O)F)c(Cl)c1
inactive: dose: 100.0 mg/kg/injection, schedule: Q01DX001 (ip), vehicle: saline with Tween-80 91 % of control | dose: 200.0 mg/kg/injection, schedule: Q01DX001 (ip), vehicle: saline with Tween-80 94 % of control | dose: 400.0 mg/kg/injection, schedule: Q01DX001 (ip), vehicle: saline with Tween-80 97 % of control

O=Nc1c(-c2c[nH]c3ccccc23)[nH]c2ccccc12
inactive: [12] 106 % of control | [13] 102 % of control

CCCCCCC(C)N(CC)CCOC(=O)c1ccc(N)cc1 (stereo unspecified)
inactive: dose: 75.0 mg/kg/injection, schedule: Q01DX001 (ip), vehicle: other 94 % of control | dose: 150.0 mg/kg/injection, schedule: Q01DX001 (ip), vehicle: other 98 % of control

Nc1ccc(Sc2ccc(N)cc2)cc1
inactive: dose: 12.5 mg/kg/injection, schedule: Q04DX002 (ip), vehicle: Klucel (hydroxypropylcellulose) (HPC) 106 % of control | dose: 25.0 mg/kg/injection, schedule: Q04DX002 (ip), vehicle: Klucel (hydroxypropylcellulose) (HPC) 116 % of control | dose: 50.0 mg/kg/injection, schedule: Q04DX002 (ip), vehicle: Klucel (hydroxypropylcellulose) (HPC) 106 % of control | dose: 100.0 mg/kg/injection, schedule: Q04DX002 (ip), vehicle: Klucel (hydroxypropylcellulose) (HPC) 103 % of control

C=CCC(Cc1cc(CC(CC=C)(C(=O)OCC)C(=O)OCC)cc(CC(CC=C)(C(=O)OCC)C(=O)OCC)c1)(C(=O)OCC)C(=O)OCC
inactive: dose: 100.0 mg/kg/injection, schedule: Q04DX003 (ip), vehicle: acetone 107 % of control | dose: 200.0 mg/kg/injection, schedule: Q04DX003 (ip), vehicle: acetone 90 % of control | dose: 400.0 mg/kg/injection, schedule: Q04DX003 (ip), vehicle: acetone 96 % of control

C/C=C/C=C\COC(=O)C(C)(C)CCC
inactive: [1] 90 % of control | [16] 98 % of control | dose: 100.0 mg/kg/injection, schedule: Q04DX002 (ip), vehicle: saline 96 % of control | [2] 90 % of control | [17] 95 % of control | dose: 200.0 mg/kg/injection, schedule: Q04DX002 (ip), vehicle: saline 103 % of control | [3] 93 % of control | [18] 95 % of control | dose: 800.0 mg/kg/injection, schedule: Q04DX002 (ip), vehicle: saline with Tween-80 95 % of control

COc1ccc2c(c1OC)-c1c3c(cc4c1C(C2)N(C)CC4)OCO3 (stereo unspecified)
inactive: [13] 98 % of control | [14] 101 % of control | [15] 96 % of control

O=C(O)CS(=O)(=O)c1ccccc1
inactive: [8] 95 % of control | [10] 105 % of control

Cn1c(=S)sc2cc(Cl)ccc21
inactive: [4] 104 % of control | [5] 101 % of control | [19] 98 % of control

O=[N+]([O-])Nc1cc(Cl)nc(Cl)c1
inactive: dose: 75.0 mg/kg/injection, schedule: Q01DX001 (ip), vehicle: carboxymethylcellulose (CMC) 105 % of control | dose: 150.0 mg/kg/injection, schedule: Q01DX001 (ip), vehicle: carboxymethylcellulose (CMC) 97 % of control

CC1=CCC2(C)C(=O)C1CC1=C2CC(C)(C)CC1=O (stereo unspecified)
inactive: [7] 92 % of control | [20] 101 % of control | [9] 94 % of control | [21] 98 % of control | dose: 400.0 mg/kg/injection, schedule: Q01DX009 (ip), vehicle: saline 101 % of control | [22] 98 % of control

C/C(=N\NC(=O)c1ccc([N+](=O)[O-])cc1)c1ccccc1
inactive: dose: 100.0 mg/kg/injection, schedule: Q01DX001 (ip), vehicle: carboxymethylcellulose (CMC) 87 % of control | dose: 200.0 mg/kg/injection, schedule: Q01DX001 (ip), vehicle: carboxymethylcellulose (CMC) 87 % of control

COc1cccc2c1C13CC(C)CC(C2)C1CCC(=O)N3 (stereo unspecified)
inactive: [20] 100 % of control | [21] 93 % of control | [22] 102 % of control
